{"source": "DBAASP", "experiment_in_all_cases": "≥ marks a high value that may be exact or a test limit, other limits are often not marked, values filed in µg/mL are converted to µM", "key": {"[1]": {"test_system": "Staphylococcus aureus ATCC 2592"}, "[2]": {"test_system": "Candida albicans ATCC 2002"}, "[3]": {"test_system": "Pseudomonas fluorescens ATCC 13525"}, "[4]": {"test_system": "Bacillus subtilis ATCC 6633"}, "[5]": {"test_system": "Staphylococcus aureus CIB 85462"}, "[6]": {"test_system": "Escherichia coli CIB 84492"}, "[7]": {"test_system": "Staphylococcus aureus ATCC 25923"}, "[8]": {"test_system": "Candida albicans CIB 45437"}, "[9]": {"test_system": "Escherichia coli ATCC 25922"}, "[10]": {"test_system": "Candida albicans ATCC 20032"}, "[11]": {"test_system": "Streptococcus mitis ATCC 903"}, "[12]": {"test_system": "Streptococcus sanguinis NY101"}, "[13]": {"test_system": "Lacticaseibacillus casei ATCC 4646"}, "[14]": {"test_system": "Veillonella atypica PK1910"}, "Streptococcus mutans": {"test_system": "Streptococcus mutans"}, "[15]": {"test_system": "Streptococcus gordonii Challis DL1"}, "[16]": {"test_system": "Candida albicans NCYC 1467"}, "[17]": {"test_system": "Enterococcus faecalis ATCC 29212"}, "[18]": {"test_system": "Pseudomonas aeruginosa ATCC 27853"}, "[19]": {"test_system": "Candida parapsilosis ATCC 22019"}, "[20]": {"test_system": "Staphylococcus aureus NCTC 10788"}, "[21]": {"test_system": "Staphylococcus aureus ATCC BAA-44"}, "[22]": {"test_system": "Staphylococcus aureus ST1065"}, "[23]": {"test_system": "Staphylococcus aureus ATCC 43300"}, "Escherichia coli ML-35p": {"test_system": "Escherichia coli ML-35p"}}}
{"smiles": "CC[C@H](C)[C@H](NC(=O)[C@H](CCCN=C(N)N)NC(=O)[C@H](CC(C)C)NC(=O)[C@H](C)NC(=O)[C@H](CO)NC(=O)CNC(=O)[C@H](CCSC)NC(=O)[C@@H](N)Cc1ccccc1)C(=O)N[C@@H](C)C(=O)N[C@@H](C)C(=O)N[C@@H](CCCCN)C(=O)N[C@H](C(=O)N[C@@H](CC(C)C)C(=O)N1CCC[C@H]1C(=O)N[C@@H](C)C(=O)N[C@@H](C)C(=O)N[C@@H](CC(C)C)C(=O)N[C@H]1CSSC[C@@H](C(=O)O)NC(=O)[C@H](CCCCN)NC(=O)[C@H](CCCCN)NC(=O)[C@H](Cc2ccccc2)NC(=O)[C@H]([C@@H](C)CC)NC(=O)[C@H](CCC(N)=O)NC1=O)C(C)C", "note": "[FMGSALRIAAKVLPAALCQIFKKC]", "values": [{"measurement": "MIC", "setting": "[1]", "value": 2.42, "unit": "µM"}, {"measurement": "MIC", "setting": "[2]", "value": 19.4, "unit": "µM"}, {"measurement": "MIC", "setting": "[3]", "value": "≥ 38.8", "unit": "µM"}, {"measurement": "MIC", "setting": "[4]", "value": 2.42, "unit": "µM"}]}
{"smiles": "CC[C@H](C)[C@H](NC(=O)CN)C(=O)N[C@@H](Cc1ccccc1)C(=O)NCC(=O)N[C@@H](CCCCN)C(=O)N[C@H](C(=O)N[C@@H](CC(C)C)C(=O)NCC(=O)N[C@H](C(=O)NCC(=O)N[C@@H](CCCCN)C(=O)N[C@@H](CCCCN)C(=O)N[C@H](C(=O)N[C@@H](CC(C)C)C(=O)N[C@H]1CSSC[C@@H](C(=O)O)NC(=O)[C@H](CCSC)NC(=O)CNC(=O)[C@H](CO)NC(=O)[C@H](CC(C)C)NC(=O)CNC1=O)C(C)C)C(C)C)[C@@H](C)CC", "note": "[GIFGKILGVGKKVLCGLSGMC]", "values": [{"measurement": "MIC", "setting": "[5]", "value": 7.69, "unit": "µM"}, {"measurement": "MIC", "setting": "[6]", "value": 15.4, "unit": "µM"}, {"measurement": "MIC", "setting": "[7]", "value": 7.69, "unit": "µM"}, {"measurement": "MIC", "setting": "[8]", "value": 30.8, "unit": "µM"}, {"measurement": "MIC", "setting": "[9]", "value": 15.4, "unit": "µM"}]}
{"smiles": "CC[C@H](C)[C@H](NC(=O)CN)C(=O)NCC(=O)NCC(=O)N[C@@H](CCCCN)C(=O)N[C@H](C(=O)N[C@@H](CC(C)C)C(=O)NCC(=O)NCC(=O)N[C@@H](CC(C)C)C(=O)N[C@@H](CCCCN)C(=O)N[C@H](C(=O)N[C@@H](C)C(=O)N[C@@H](CC(C)C)C(=O)N[C@@H](CCCCN)C(=O)NCC(=O)N[C@@H](C)C(=O)N[C@@H](C)C(=O)N[C@@H](CCCCN)C(=O)N[C@@H](CCC(=O)O)C(=O)N[C@@H](CC(C)C)C(=O)N[C@@H](C)C(=O)N[C@@H](CO)C(=O)N[C@H](C(=O)N[C@@H](Cc1ccc(O)cc1)C(=O)N[C@@H](CC(C)C)C(=O)N[C@@H](Cc1cnc[nH]1)C(N)=O)[C@@H](C)O)[C@@H](C)O)[C@@H](C)CC", "note": "[GIGGKILGGLKTALKGAAKELASTYLH]", "values": [{"measurement": "MIC", "setting": "[7]", "value": 3.52, "unit": "µM"}, {"measurement": "MIC", "setting": "[10]", "value": "≥ 37.5", "unit": "µM"}, {"measurement": "MIC", "setting": "[4]", "value": "≥ 37.5", "unit": "µM"}, {"measurement": "MIC", "setting": "[9]", "value": 7.05, "unit": "µM"}]}
{"smiles": "CC[C@H](C)[C@H](N)C(=O)N[C@@H](CCCCN)C(=O)N[C@@H](CCC(N)=O)C(=O)N[C@@H](CC(C)C)C(=O)N[C@@H](CC(C)C)C(=O)N[C@@H](Cc1cnc[nH]1)C(=O)N[C@@H](Cc1ccccc1)C(=O)N[C@@H](Cc1ccccc1)C(=O)N[C@@H](CCC(N)=O)C(=O)N[C@@H](CCCN=C(N)N)C(=O)N[C@@H](Cc1ccccc1)C(=O)NCC(=O)NCC(=O)NCC(=O)N[C@@H](CCCN=C(N)N)C(=O)N[C@@H](Cc1c[nH]c2ccccc12)C(=O)N[C@@H](CCCN=C(N)N)C(=O)N[C@@H](Cc1c[nH]c2ccccc12)C(=O)N[C@@H](CCCN=C(N)N)C(=O)N[C@@H](Cc1c[nH]c2ccccc12)C(=O)N[C@@H](Cc1ccccc1)C(N)=O", "note": "[IKQLLHFFQRFGGGRWRWRWF]", "values": [{"measurement": "MIC", "setting": "[11]", "value": 22.7, "unit": "µM"}, {"measurement": "MIC", "setting": "[12]", "value": 5.67, "unit": "µM"}, {"measurement": "MIC", "setting": "[13]", "value": 5.67, "unit": "µM"}, {"measurement": "MIC", "setting": "[14]", "value": 2.83, "unit": "µM"}, {"measurement": "MIC", "setting": "Streptococcus mutans", "value": 2.83, "unit": "µM"}, {"measurement": "MIC", "setting": "[15]", "value": 11.3, "unit": "µM"}]}
{"smiles": "CC[C@H](C)[C@H](NC(=O)[C@H](C)NC(=O)[C@H](CO)NC(=O)[C@@H](NC(=O)[C@H](C)NC(=O)[C@@H](NC(=O)[C@@H]1CCCN1C(=O)[C@@H](NC(=O)[C@H](CCSC)NC(=O)CNC(=O)[C@H](CC(C)C)NC(=O)[C@@H](N)CC(C)C)[C@@H](C)CC)C(C)C)[C@@H](C)CC)C(=O)N[C@@H](CO)C(=O)N[C@@H](C)C(=O)N[C@@H](CC(C)C)C(=O)N[C@@H](CO)C(=O)N[C@@H](CCCCN)C(=O)N[C@@H](CC(C)C)C(N)=O", "note": "[LLGMIPVAISAISALSKL]", "values": [{"measurement": "MIC", "setting": "[16]", "value": "≥ 71.2", "unit": "µM"}, {"measurement": "MIC", "setting": "[7]", "value": 25, "unit": "µM"}, {"measurement": "MIC", "setting": "[17]", "value": 100, "unit": "µM"}, {"measurement": "MIC", "setting": "[18]", "value": "> 100", "unit": "µM"}, {"measurement": "MIC", "setting": "[19]", "value": "≥ 100", "unit": "µM"}, {"measurement": "MIC", "setting": "[20]", "value": 17.8, "unit": "µM"}, {"measurement": "MIC", "setting": "[21]", "value": "≥ 100", "unit": "µM"}, {"measurement": "MIC", "setting": "[22]", "value": "≥ 100", "unit": "µM"}, {"measurement": "MIC", "setting": "[23]", "value": "> 100", "unit": "µM"}, {"measurement": "MIC", "setting": "[9]", "value": "> 100", "unit": "µM"}, {"measurement": "MIC", "setting": "Escherichia coli ML-35p", "value": "≥ 100", "unit": "µM"}]}
